Where two headings read alike, the source gives them in different places. Each block holds one molecule with its values, some of them ahead of it.
What was measured:
[1] = target: T1, baculovirus-expressed ALK (Homo sapiens, UniProt Q9UM73); experiment: ALK Kinase Assay (ELISA-type, time-resolved fluorescence); format: biochemical
T1 construct: host or cells: baculovirus expression system
How it was run: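 Wells were coated with phospholipase C-γ at 10 μg/mL in Tris-buffered saline. Adding 30 ng/ml enzyme started the reaction, which ran at 37° C for 15 minutes before Eu-N1 PT66 antibody detection. Percent inhibition versus log10 concentration gave IC50 by variable-slope fit.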

[2] = target: T2, c-Met (cytoplasmic domain) (Homo sapiens, UniProt P08581); experiment: c-Met Kinase Assay (same methods as for ALK, with modifications); format: biochemical
T2 construct: 10 ng/mL c-Met (cytoplasmic domain, Invitrogen Corporation #PV3143); purchased Invitrogen Corporation PV3143
How it was run: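 Steps: coat wells with PLC-γ (10 μg/mL, Tris-buffered saline); add 10 ng/mL c-Met cytoplasmic domain to initiate; incubate 15 min, 37° C; detect phosphoproduct via Eu-N1 PT66 antibody.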

[3] = 1 μM ATP (Km level), read-out: ALK Activity (ALK Kinase Inhibition, IC50)
[4] = 1 μM ATP (Km level), read-out: cMet Activity (c-Met Kinase Inhibition, IC50)
[5] = ALK kinase inhibition, 1 μM ATP (Km level), read-out: ALK Activity
[6] = c-Met kinase inhibition, 1 μM ATP (Km level), read-out: cMet Activity
[7] = 1 μM ATP (Km level), 30 ng/ml ALK, 37° C., 15 minutes, read-out: ALK Activity (ALK kinase inhibition, IC50 class)
[8] = 1 μM ATP (Km level), 10 ng/mL c-Met, read-out: cMet Activity (c-Met kinase inhibition, IC50 class)
[9] = ALK kinase inhibition, 1 μM ATP, read-out: ALK Activity
[10] = c-Met kinase inhibition, 1 μM ATP, read-out: cMet Activity

T1 sequence (Q9UM73 19-1620): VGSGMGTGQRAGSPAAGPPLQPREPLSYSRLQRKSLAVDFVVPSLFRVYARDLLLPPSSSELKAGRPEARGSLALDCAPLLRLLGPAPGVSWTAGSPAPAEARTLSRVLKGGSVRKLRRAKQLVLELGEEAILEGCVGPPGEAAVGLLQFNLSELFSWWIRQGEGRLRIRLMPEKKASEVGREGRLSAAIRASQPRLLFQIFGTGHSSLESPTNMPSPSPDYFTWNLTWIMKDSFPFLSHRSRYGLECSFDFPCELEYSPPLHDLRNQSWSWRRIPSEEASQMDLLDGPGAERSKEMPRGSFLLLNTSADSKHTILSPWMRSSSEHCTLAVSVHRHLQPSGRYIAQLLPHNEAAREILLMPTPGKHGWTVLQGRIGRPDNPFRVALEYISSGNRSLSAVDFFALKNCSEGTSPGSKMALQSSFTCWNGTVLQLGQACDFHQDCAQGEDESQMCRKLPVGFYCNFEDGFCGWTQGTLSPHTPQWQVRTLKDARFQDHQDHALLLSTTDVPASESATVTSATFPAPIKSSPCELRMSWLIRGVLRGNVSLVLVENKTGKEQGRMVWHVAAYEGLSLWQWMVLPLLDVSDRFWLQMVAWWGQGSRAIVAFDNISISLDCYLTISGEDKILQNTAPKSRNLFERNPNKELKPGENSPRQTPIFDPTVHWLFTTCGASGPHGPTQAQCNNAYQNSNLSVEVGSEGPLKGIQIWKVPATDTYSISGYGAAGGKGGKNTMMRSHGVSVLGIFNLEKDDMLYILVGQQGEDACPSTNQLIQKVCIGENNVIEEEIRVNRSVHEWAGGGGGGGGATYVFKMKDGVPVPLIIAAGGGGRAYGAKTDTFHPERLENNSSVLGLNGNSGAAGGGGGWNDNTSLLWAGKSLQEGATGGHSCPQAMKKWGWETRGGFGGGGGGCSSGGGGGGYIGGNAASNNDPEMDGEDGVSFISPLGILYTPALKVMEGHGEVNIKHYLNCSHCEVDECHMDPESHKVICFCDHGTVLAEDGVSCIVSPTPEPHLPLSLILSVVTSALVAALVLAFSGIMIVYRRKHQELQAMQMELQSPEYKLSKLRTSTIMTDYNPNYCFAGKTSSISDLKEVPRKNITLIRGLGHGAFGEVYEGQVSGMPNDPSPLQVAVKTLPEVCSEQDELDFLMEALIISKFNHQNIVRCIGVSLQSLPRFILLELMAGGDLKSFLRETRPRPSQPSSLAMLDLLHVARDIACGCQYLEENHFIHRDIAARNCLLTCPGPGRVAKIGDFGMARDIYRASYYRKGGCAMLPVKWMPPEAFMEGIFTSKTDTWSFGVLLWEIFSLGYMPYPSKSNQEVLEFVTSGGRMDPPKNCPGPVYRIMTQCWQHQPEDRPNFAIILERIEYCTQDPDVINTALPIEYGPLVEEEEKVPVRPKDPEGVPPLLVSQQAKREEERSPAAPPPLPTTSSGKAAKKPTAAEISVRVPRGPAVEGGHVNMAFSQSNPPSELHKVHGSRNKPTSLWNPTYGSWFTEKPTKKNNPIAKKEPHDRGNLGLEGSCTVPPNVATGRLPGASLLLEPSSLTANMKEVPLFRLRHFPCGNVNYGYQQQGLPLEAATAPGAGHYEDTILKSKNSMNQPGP
T2 sequence (P08581 956-1390 limits assumed): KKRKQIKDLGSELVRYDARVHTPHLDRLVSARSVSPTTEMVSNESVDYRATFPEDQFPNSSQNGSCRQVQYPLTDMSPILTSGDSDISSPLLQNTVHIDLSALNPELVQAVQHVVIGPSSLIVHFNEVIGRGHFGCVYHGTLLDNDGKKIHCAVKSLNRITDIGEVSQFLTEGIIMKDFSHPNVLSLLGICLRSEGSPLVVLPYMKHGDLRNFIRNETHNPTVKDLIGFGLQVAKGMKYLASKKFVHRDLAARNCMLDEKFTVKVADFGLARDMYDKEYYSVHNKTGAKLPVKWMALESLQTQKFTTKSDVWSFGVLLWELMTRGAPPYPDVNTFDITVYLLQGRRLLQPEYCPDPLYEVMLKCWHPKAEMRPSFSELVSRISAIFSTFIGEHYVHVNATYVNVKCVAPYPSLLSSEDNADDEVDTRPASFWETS

IC50 [1, 3]: < 100 nM
IC50 [2, 4]: 1000 to 10000 nM
SMILES: CCNC(=O)c1cccc(F)c1Nc1nc(Nc2cc3c(cc2OC)CCN(CC(C)(F)F)CC3)ncc1Cl [Example 789, 2-{5-Chloro-2-[3-(2,2-difluoro-propyl)-8-methoxy-2,3,4,5-tetrahydro-1H-benzo[d]azepin-7-ylamino]-pyrimidin-4-ylamino}-N-ethyl-3-fluoro-benzamide]

IC50 [1, 5]: < 100 nM
IC50 [2, 6]: < 100 nM
SMILES: CNC(=O)c1ccccc1Nc1nc(Nc2ccc3c(c2)CCN(C[C@@H](O)C(F)(F)F)CC3)ncc1Cl [Example 448, 2-{5-Chloro-2-[3-((R)-3,3,3-trifluoro-2-hydroxy-propyl)-2,3,4,5-tetrahydro-1H-benzo[d]azepin-7-ylamino]-pyrimidin-4-ylamino}-N-methyl-benzamide]

IC50 [1, 5]: < 100 nM
IC50 [2, 6]: < 100 nM
SMILES: CNC(=O)c1ccccc1Nc1nc(Nc2ccc3c(c2)N(C)CCN(C(=O)N(C)C)C3)ncc1Cl [Example 489, 8-[5-Chloro-4-(2-methylcarbamoyl-phenylamino)-pyrimidin-2-ylamino]-1-methyl-1,2,3,5-tetrahydro-benzo[e][1,4]diazepine-4-carboxylic acid dimethylamide]

IC50 [1, 5]: < 100 nM
IC50 [2, 6]: 1000 to 10000 nM
SMILES: CCN1CCc2ccc(Nc3ncc(Cl)c(Nc4ccc(N5CCOCC5)cc4OC)n3)cc2CC1 [Example 442, 5-Chloro-N*2*-(3-ethyl-2,3,4,5-tetrahydro-1H-benzo[d]azepin-7-yl)-N*4*-(2-methoxy-4-morpholin-4-yl-phenyl)-pyrimidine-2,4-diamine]

IC50 [1, 7]: > 10000 nM
IC50 [2, 8]: 100 to 1000 nM
SMILES: COc1cccc(C(=O)NCC#N)c1Nc1nc(Nc2ccc3c(c2)CCCC(=O)N3C)ncc1Cl [Example 1065, 2-[5-Chloro-2-(1-methyl-2-oxo-2,3,4,5-tetrahydro-1H-benzo[b]azepin-7-ylamino)-pyrimidin-4-ylamino]-N-cyanomethyl-3-methoxy-benzamide]

IC50 [1, 3]: < 100 nM
IC50 [2, 4]: > 10000 nM
SMILES: COc1cc2c(cc1Nc1ncc(F)c(Nc3ccc(N4CCN(C)CC4)cc3OC)n1)CCN(CCS(C)(=O)=O)CC2 [Example 805, 5-Fluoro-N*2*-[3-(2-methanesulfonyl-ethyl)-8-methoxy-2,3,4,5-tetrahydro-1H-benzo[d]azepin-7-yl]-N*4*-[2-methoxy-4-(4-methyl-piperazin-1-yl)-phenyl]-pyrimidine-2,4-diamine]

IC50 [1, 5]: < 100 nM
IC50 [2, 6]: < 100 nM
SMILES: CNC(=O)c1ccccc1Nc1nc(Nc2ccc3c(c2)COCCN3C)ncc1Cl [Example 15, 2-[5-Chloro-2-(1-methyl-1,2,3,5-tetrahydro-benzo[e][1,4]oxazepin-7-ylamino)-pyrimidin-4-ylamino]-N-methyl-benzamide]

IC50 [1, 9]: < 100 nM
IC50 [2, 10]: > 10000 nM
SMILES: COc1cc2c(cc1Nc1ncc(Cl)c(N[C@@H]3CCCC[C@H]3NS(C)(=O)=O)n1)NC(=O)CN(C(=O)C(F)(F)F)C2(C)C [Example 1463, N-((1R,2R)-2-{5-Chloro-2-[7-methoxy-5,5-dimethyl-2-oxo-4-(2,2,2-trifluoro-acetyl)-2,3,4,5-tetrahydro-1H-benzo[e][1,4]diazepin-8-ylamino]-pyrimidin-4-ylamino}-cyclohexyl)-methanesulfonamide]

IC50 [1, 7]: 100 to 1000 nM
IC50 [2, 8]: < 100 nM
SMILES: CNC(=O)c1cccc(Cl)c1Nc1nc(Nc2ccc3c(c2)CCN(CC(=O)N(C)C)CC3)ncc1Cl [Example 1370, 3-Chloro-2-[5-chloro-2-(3-dimethylcarbamoylmethyl-2,3,4,5-tetrahydro-1H-benzo[d]azepin-7-ylamino)-pyrimidin-4-ylamino]-N-methyl-benzamide]

SMILES: CNC(=O)c1ccccc1Nc1nc(Nc2ccc3c(c2Cl)C2CCC(C3)N2C(C)C)ncc1Cl (stereo not drawn) [Example 86, 2-[5-Chloro-2-(3-chloro-12-isopropyl-12-aza-tricyclo[7.2.1.0*2,7*]dodeca-2(7),3,5-trien-4-ylamino)-pyrimidin-4-ylamino]-N-methyl-benzamide]
IC50 [1, 5]: < 100 nM
IC50 [2, 6]: 100 to 1000 nM

IC50 [1, 5]: < 100 nM
IC50 [2, 6]: > 10000 nM
SMILES: CCN1C(=O)CCCc2cc(Nc3ncc(Cl)c(Nc4ccc(N5CCOCC5)cc4OC)n3)c(OC)cc21 [Example 135, 7-[5-Chloro-4-(2-methoxy-4-morpholin-4-yl-phenylamino)-pyrimidin-2-ylamino]-1-ethyl-8-methoxy-1,3,4,5-tetrahydro-benzo[b]azepin-2-one]

IC50 [1, 9]: 1000 to 10000 nM
IC50 [2, 10]: 1000 to 10000 nM
SMILES: CNCc1ccccc1Nc1nc(Nc2ccc3c(c2)CCOC(=O)N3C)ncc1Cl [Example 1791, 2-[5-Chloro-4-(2-methylaminomethyl-phenylamino)-pyrimidin-2-ylamino]-5-methyl-8,9-dihydro-5H-7-oxa-5-aza-benzocyclohepten-6-one]

IC50 [1, 7]: < 100 nM
IC50 [2, 8]: > 10000 nM
SMILES: COc1cc2c(cc1Nc1ncc(Cl)c(Nc3ccccc3OC)n1)CCN(C(=O)CN(C)C)CC2 [Example 1131, 1-{7-[5-Chloro-4-(2-methoxy-phenylamino)-pyrimidin-2-ylamino]-8-methoxy-1,2,4,5-tetrahydro-benzo[d]azepin-3-yl}-2-dimethylamino-ethanone]

IC50 [1, 7]: 100 to 1000 nM
IC50 [2, 8]: 100 to 1000 nM
SMILES: COCCN1CCc2ccc(Nc3ncc(Cl)c(Nc4ccccc4C(=O)NCCN(C)C)n3)cc2CC1 [Example 1397, {5-Chloro-2-[3-(2-methoxy-ethyl)-2,3,4,5-tetrahydro-1H-benzo[d]azepin-7-ylamino]-pyrimidin-4-ylamino}-N-(2-dimethylamino-ethyl)-benzamide]

IC50 [1, 9]: < 100 nM
IC50 [2, 10]: > 10000 nM
SMILES: CCN1CCN(CC)c2cc(Nc3ncc(Cl)c(N[C@@H]4CCCC[C@H]4NS(C)(=O)=O)n3)c(OC)cc2C1 [Example 1456, N-{(1R,2R)-2-[5-Chloro-2-(1,4-diethyl-7-methoxy-2,3,4,5-tetrahydro-1H-benzo[e][1,4]diazepin-8-ylamino)-pyrimidin-4-ylamino]-cyclohexyl}-methanesulfonamide]

IC50 [1, 5]: 100 to 1000 nM
IC50 [2, 6]: 100 to 1000 nM
SMILES: CNC(=O)c1cccc(OC)c1Nc1nc(Nc2ccc3c(c2)CCN(CCOC)CC3)ncc1Cl [Example 315, 2-{5-Chloro-2-[3-(2-methoxy-ethyl)-2,3,4,5-tetrahydro-1H-benzo[d]azepin-7-ylamino]-pyrimidin-4-ylamino}-3-methoxy-N-methyl-benzamide]

IC50 [1, 7]: < 100 nM
IC50 [2, 8]: > 10000 nM
SMILES: CCN1C(=O)C(N(C)C)CCc2c1ccc(Nc1ncc(Cl)c(Nc3ccccc3S(=O)(=O)N(C)C)n1)c2OC (stereo not drawn) [Example 1348, 2-[5-Chloro-2-(3-dimethylamino-1-ethyl-6-methoxy-2-oxo-2,3,4,5-tetrahydro-1H-benzo[b]azepin-7-ylamino)-pyrimidin-4-ylamino]-N,N-dimethyl-benzenesulfonamide]

IC50 [1, 5]: 100 to 1000 nM
IC50 [2, 6]: 1000 to 10000 nM
SMILES: COCCN1CCc2ccc(Nc3ncc(Cl)c(NCC(C)NS(C)(=O)=O)n3)cc2CC1 (stereo not drawn) [Example 301, N-(2-{5-Chloro-2-[3-(2-methoxy-ethyl)-2,3,4,5-tetrahydro-1H-benzo[d]azepin-7-ylamino]-pyrimidin-4-ylamino}-1-methyl-ethyl)-methanesulfonamide]

IC50 [1, 3]: < 100 nM
IC50 [2, 4]: > 10000 nM
SMILES: CNC(=O)CN1CCc2cc(Nc3ncc(F)c(Nc4ccc(N5CCOCC5)cc4OC)n3)c(OC)cc2CC1 [Example 809, 2-{7-[5-Fluoro-4-(2-methoxy-4-morpholin-4-yl-phenylamino)-pyrimidin-2-ylamino]-8-methoxy-1,2,4,5-tetrahydro-benzo[d]azepin-3-yl}-N-methyl-acetamide]

IC50 [1, 7]: 1000 to 10000 nM
IC50 [2, 8]: < 100 nM
SMILES: C#CCNC(=O)c1cccc(F)c1Nc1nc(Nc2ccc3c(c2)NC(=O)C(NC(C)=O)CC3(C)C)ncc1Cl (stereo not drawn) [Example 1290, 2-[2-(3-Acetylamino-5,5-dimethyl-2-oxo-2,3,4,5-tetrahydro-1H-1-benzazepin-8-ylamino)-5-chloro-pyrimidin-4-ylamino]-3-fluoro-N-prop-2-ynyl-benzamide]

IC50 [1, 3]: < 100 nM
IC50 [2, 4]: 1000 to 10000 nM
SMILES: COc1cc(N2CCN(C)CC2)ccc1Nc1nc(Nc2ccc3c(c2)CCCC(=O)N3C(C)C)ncc1Cl [Example 674, 7-{5-Chloro-4-[2-methoxy-4-(4-methyl-piperazin-1-yl)-phenylamino]-pyrimidin-2-ylamino}-1-isopropyl-1,3,4,5-tetrahydro-benzo[b]azepin-2-one]

IC50 [1, 3]: < 100 nM
IC50 [2, 4]: > 10000 nM
SMILES: COc1cc2c(cc1Nc1ncc(Cl)c(Nc3ccc(Cl)cc3S(=O)(=O)N(C)C)n1)CCN(CCO)CC2 [Example 840, 5-Chloro-2-{5-chloro-2-[3-(2-hydroxy-ethyl)-8-methoxy-2,3,4,5-tetrahydro-1H-benzo[d]azepin-7-ylamino]-pyrimidin-4-ylamino}-N,N-dimethyl-benzenesulfonamide]

IC50 [1, 5]: < 100 nM
IC50 [2, 6]: 100 to 1000 nM
SMILES: COCCN1CCc2ccc(Nc3ncc(Cl)c(Nc4ccccc4C(=O)NC(C)C)n3)cc2CC1 [Example 342, 2-{5-Chloro-2-[3-(2-methoxy-ethyl)-2,3,4,5-tetrahydro-1H-benzo[d]azepin-7-ylamino]-pyrimidin-4-ylamino}-N-isopropyl-benzamide]

IC50 [1, 9]: < 100 nM
IC50 [2, 10]: 1000 to 10000 nM
SMILES: CNC(=O)c1ccccc1Nc1nc(Nc2cc3c(cc2OC)NC(=O)CCC3(C)C)ncc1Cl [Example 1671, 2-[5-Chloro-2-(8-methoxy-5,5-dimethyl-2-oxo-2,3,4,5-tetrahydro-1H-benzo[b]azepin-7-ylamino)-pyrimidin-4-ylamino]-N-methyl-benzamide]
